# Laboratory results: ChEMBL document CHEMBL1128048, “Synthesis of chromophoric dipeptides as substrates for papain” (Bioorg Med Chem Lett, 1995)
# Assays:
# Assay type in all cases: ADME
# [1] = Compound was evaluated for catalytic constant, Kcat
# [2] = Compound was evaluated for Michaelis-Menten constant, Km
# [3] = Ratio of catalytic constant to Michaelis-Menten constant (Kcat/Km)
SMILES,k cat [1] [s⁻¹],Km [2] [Me-3],Ratio [3]
CCOC(=O)/C(=C\c1ccc(C)s1)NC(=O)[C@H](C)NC(C)=O,0.0033,3.9,0.05
CCOC(=O)N/C(=C/c1ccc(C)s1)C(=O)n1ccnc1,0.0013,–,–
Cc1ccc(/C=C\C(=O)n2ccnc2)s1,0.0012,–,–
CCOC(=O)/C(=C\c1ccc(C)s1)NC(=O)[C@H](Cc1ccccc1)NC(C)=O,0.0033,0.062,3.2
